As a reminder, the IC50 is the concentration at which inhibition is half-maximal.

Each structure is given as a SMILES string.

In data set [1] the target is T1, His tagged PTPN2 (TC45) protein (Homo sapiens, UniProt P17706).
T1 construct: made in house
T1 sequence (P17706 with tags, fused parts or gaps isoform P17706-2): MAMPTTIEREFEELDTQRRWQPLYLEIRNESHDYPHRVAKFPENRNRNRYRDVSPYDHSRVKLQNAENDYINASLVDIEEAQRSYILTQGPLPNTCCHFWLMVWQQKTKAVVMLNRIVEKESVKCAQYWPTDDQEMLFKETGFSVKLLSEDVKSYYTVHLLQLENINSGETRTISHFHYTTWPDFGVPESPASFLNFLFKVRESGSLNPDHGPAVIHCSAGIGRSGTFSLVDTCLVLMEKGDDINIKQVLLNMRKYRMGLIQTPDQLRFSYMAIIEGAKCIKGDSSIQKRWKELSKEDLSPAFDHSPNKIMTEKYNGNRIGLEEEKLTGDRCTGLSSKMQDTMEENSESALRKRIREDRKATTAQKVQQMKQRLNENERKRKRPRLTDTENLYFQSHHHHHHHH
Kind of data set: Mobility shift assay (MSA) to determine potency of PTPN2 inhibitors. It counts as biochemical. The note with it: 0.5 nM enzyme, 2 μM substrate. In short, it runs like this: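 His-tagged human PTPN2 (TC45), 0.5 nM, preincubated 10 min at room temperature with compound (12-point, 1:3 dilutions) in HEPES pH 7.5 buffer with EGTA, EDTA, Tween 20 and DTT. Then 2 μM OG488-labelled phospho-insulin-receptor peptide was added for 10 min and quenched. % conversion was read by mobility shift, and IC50 came from % inhibition.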

Data set [2] deals with T2, His tagged full-length PTPN1 protein (Homo sapiens, UniProt P18031).
T2 construct: made in house
T2 sequence (P18031 with tags, fused parts or gaps): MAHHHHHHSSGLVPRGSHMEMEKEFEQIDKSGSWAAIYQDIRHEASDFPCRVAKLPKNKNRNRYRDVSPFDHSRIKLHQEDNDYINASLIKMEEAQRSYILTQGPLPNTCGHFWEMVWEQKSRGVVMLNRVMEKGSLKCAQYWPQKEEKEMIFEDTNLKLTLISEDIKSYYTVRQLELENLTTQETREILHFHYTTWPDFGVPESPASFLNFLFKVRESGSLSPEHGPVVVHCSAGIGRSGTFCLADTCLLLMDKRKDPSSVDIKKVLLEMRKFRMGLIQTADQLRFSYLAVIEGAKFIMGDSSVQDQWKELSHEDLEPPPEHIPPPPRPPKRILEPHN
Kind of data set: Mobility shift assay (MSA) to determine potency of PTPN1 inhibitors. It counts as biochemical. The note with it: 0.5 nM enzyme, 2 μM substrate. Summed up:
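Readout is microfluidic mobility shift (ex 488/em 530 nm) of a 2 μM OG488-labelled pTyr insulin-receptor peptide after a 10 min room-temperature reaction, following 10 min enzyme–compound preincubation. Enzyme: 0.5 nM full-length His-tagged PTPN1 in HEPES pH 7.5 buffer. IC50 fitted from % inhibition at 12 concentrations (1:3 steps).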

Data set [3] has as its system B16F10 mouse melanoma cells. Kind of data set: B16F10 IFNγ-induced cellular growth inhibition assay. It counts as cell-based. The note with it: B16-F10, with 0.5 ng/ml IFNγ, read-out: B16F10 GI IC50. The protocol: B16F10 mouse melanoma cells (ATCC Cat #CRL-6475, Manassas, VA) were seeded at a density of 500 cells per well in a 384-well clear bottom plate (Corning Cat #3765, Corning, NY) in 25 μL total volume of DMEM+10% FBS (Sigma Cat #D6429 and Sigma Cat #F4135, St. Louis, MO). Cells were allowed to adhere overnight at 37° C.+5% CO2. On the following day, 12.5 μL of mouse IFNγ (RD systems Cat #485-MI/CF, Minneapolis, MN) was added to half of the plate (columns 13-24) at a concentration of 2 ng/ml for a final assay concentration of 0.5 ng/ml of IFNγ. Media only (12.5 μL of DMEM+10% FBS) was added to the remainder of the plate (columns 1-12). Next, compounds resuspended in DMSO (Sigma Cat #D2650) at 100 mM were diluted in semi-log dilutions in DMSO ranging from 100 mM to 0.001 mM and DMSO only controls were included. The compound/DMSO dilutions were further diluted 1:250 in DMEM+10% FBS, and 12.5 μL of these dilutions were added in triplicates to cells of both treatment arms (with and without IFNγ). Final compound concentrations ranged from 100 μM to 0.001 μM with a final DMSO concentration of 0.1%. […] Confluence over time for compound dilutions in the presence and absence of IFNγ was measured. […] At these time points, for each compound the percent growth inhibition at every compound dose level was calculated relative to the “DMSO/with IFNγ” control and used to determine the IC50.

Data set [4] relates to MC-38 murine colon adenocarcinoma. Kind of data set: In vivo efficacy in MC38 mouse tumor model. The protocol: All experiments were conducted in compliance with AbbVie's Institutional Animal Care and Use Committee and the National Institutes of Health Guide for Care and Use of Laboratory Animals guidelines in a facility accredited by the Association for the Assessment and Accreditation of Laboratory Animal Care. C57Bl/6 female mice were obtained from Charles River (Wilmington, MA). The mice were group-housed 10 per cage. Food and water were available ad libitum. Animals were acclimated to the animal facilities for a period of at least one week prior to commencement of experiments. Animals were tested in the light phase of a 12-hour light:12-hour dark schedule (lights on 0600 hours).
Cells were grown to passage 3 in vitro. A total of 1×10^5 viable MC-38 cells were inoculated subcutaneously into the right flank of female C57Bl/6 mice (7-12 weeks old) on Day 0. […] Tumor volume was calculated three times weekly. Measurements of the length (L) and width (W) of the tumor were taken via electronic caliper and the volume was calculated according to the following equation: V=L×W^2/2 using Study Director Version 3.1.399.22 (Studylog Systems, Inc, CA, USA). […] Tumor growth inhibition (TGI) was calculated as TGI=1−(Mean TVTimepoint(Treatment)/Mean TVTimepoint(Vehicle)) for each timepoint that tumor volumes were measured. […]

Data set [5] has as its system pSTAT5 in CD3+ T cells. Kind of data set: pSTAT5 flow cytometry assay in mouse whole blood. It is filed as in vivo. The settings on record: day 8 of dosing. The protocol:
Whole blood was drawn into EDTA powder coated tubes by cardiac puncture from mice on day 8 of dosing with Compound 118 (2 hours after the 16th dose). 90 μL of whole blood were stimulated with 10 μL of murine IL-2 to achieve a final concentration of 100 ng IL-2/mL (R&D Systems. Minneapolis, MN, cat #402-ML) for 20 minutes at 37° C. 5% CO2. After stimulation. 1.8 mL of prewarmed BD Phosflow Lyse/Fix Buffer (BD Biosciences. San Jose. CA) was added for 20 minutes at 37° C. Cells were washed twice in FACS buffer (Dulbecco's PBS with 0.2% BSA) and incubated for 30 minutes on ice in cold Perm Buffer III (BD Biosciences. San Jose. CA). Cells were washed with FACS buffer and resuspended in 50 μL of FACS buffer with antibodies and stained for 3 hours at room temperature with gentle shaking. […] After staining, cells were washed twice with FACS buffer, and the samples were acquired on a BD LSRFortessa™ X20 flow cytometers (BD Biosciences. San Jose, CA) and analyzed with FLowJo V10 software (FlowJo, Ashland, OR). The mean fluorescence intensity (MFI) of pSTAT5 as a measure of the amount of phosphorylated STAT5 in the CD3+ T cell population from vehicle or Compound 118 treated animals was reported.

Data set [6] relates to Granzyme B+ cells within CD8+ T cells. Kind of data set: Granzyme B staining of CD8 T cells flow cytometry assay in mouse spleen. It counts as in vivo. The note with it: day 8 of dosing. The protocol: Mice were sacrificed on day 8 of dosing with Compound 118 (2 hours after the 16th dose) and spleens were excised. Spleens were dissociated with a gentleMACS dissociator (Miltenyi Biotec. Bergisch Gladbach. Germany), red blood cells lysed, and single cell suspensions were prepared. Splenocytes were stained with Zombie UV™ Fixable Viability kit (Biolegend. San Diego, CA) diluted in Dulbecco's PBS for 10 minutes at room temperature to exclude dead cells followed by staining for surface markers for 45 minutes on ice using the following flow cytometry antibodies diluted in autoMACS Running Buffer (Miltenyi Biotec. Bergisch Gladbach, Germany); Brilliant Violet 510)-labeled anti-CD45. Brilliant Ultraviolet 395-labeled anti-CD3. Brilliant Violet 786-labeled anti-CD4. APC/Cy7-labeled anti-CD8. Cells were washed twice with autoMACS Running Buffer, permeabilized with Fixation/Permeabilization buffer (FoxP3/Transcription Factor Staining Buffer Set; eBioscience) and stained intracellularly with PE-labeled anti-Granzyme B antibody diluted in Permeabilization buffer (FoxP3/Transcription Factor Staining Buffer Set; eBioscience, San Diego, CA) for 1 hour on ice. After staining, cells were washed twice with autoMACS Running Buffer, and the samples were acquired on a BD LSRFortessa™ X20 flow cytometers (BD Biosciences, San Jose, CA) and analyzed with FLowJo V10 software (FlowJo, Ashland, OR). […]
Background: In flow cytometry, cells or beads pass a laser one at a time.

Data set [7] concerns IP10. Kind of data set: Cytokine measurement in mouse plasma (IP10). The settings on record: day 8 of dosing. It is filed as in vivo. The protocol: Whole blood was drawn into EDTA powder coated tubes by cardiac puncture from mice on day 8 of dosing with Compound 118 (2 hours after the 16th dose) and plasma was prepared by centrifugation. Cytokines in plasma were measured using the Th1/Th2 Cytokine & Chemokine 20-Plex Mouse ProcartaPlex™ Panel 1 (Invitrogen, Carlsbad, CA). IP10 levels (pg/mL) in vehicle or Compound 118 treated animals were reported.

With `CC(C)(C)O[C@H]1C[C@@H](CCNC2CCc3cc(O)c(N4CC(=O)NS4(=O)=O)c(F)c3C2)C1` (stereo partly drawn) [Compound 234], the IC50 in data set [1] lay in the range of 0.01 to 0.1 µM; in data set [2], 0.001 to 0.01 µM; in data set [3], 1 to 10 µM.
Regarding `CC(C)CCN[C@@H]1CCc2cc(O)c(N3CC(=O)NS3(=O)=O)c(F)c2C1` (single isomer, unassigned) [Compound 118], in data set [2], the IC50 was in the range of 0.001 to 0.01 µM. In data set [4] (10 mg/kg/dose oral BID for 21 days), the tolerability entry is recorded as “well tolerated, without obvious adverse health events”. Moreover, the tumor response observed entry in data set [4] (within 7-10 days of treatment) was “apparent tumor stasis and shrinkage”. Also, the “pSTAT5 levels in whole blood T cells, fold higher than vehicle control” value in data set [5] amounted to 1.6 fold. For the same compound, the “frequency of granzyme B producing cells within CD8+ T population in spleen, fold higher than vehicle control” value in data set [6] is reported as 3.9 fold. Besides, the “IP10 levels in plasma, fold higher than vehicle control” value in data set [7] worked out at 1.7 fold.

For the origin of these results see patent US20250122160A1, “PROTEIN TYROSINE PHOSPHATASE INHIBITORS AND METHODS OF USE THEREOF” (Calico Life Sciences LLC, priority 0001, published 2025).
